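Interpolation was linear, between the two tested concentrations surrounding the appropriate level; five concentrations were tested over 48 hours in 96-well plates. The concentration for 50% growth inhibition is given as GI50.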 Calls of active or inactive are those of the source. Cut-off read from the data, not from the text of the source: active = GI50 up to about 1.1 µM and inactive = higher.

Among the test systems are SK-MEL-5; IGROV-1; DU-145; HT-29; COLO 205; OVCAR-3; UACC-62; SK-MEL-2; Malme-3M; RXF 393; UO-31; SF-268; HCT-116; HOP-62; OVCAR-5; SR; TK-10; MOLT-4; NCI-H226; SNB-75.
Experiment in all cases: NCI-60 cell line screen, 48 h

Regarding `Cc1ccc(O)c(C2=NNC(c3cccc(Br)c3)C2)c1` (configuration not stated), the GI50 with SK-MEL-5 was 71.3 µM (inactive); in the experiment on IGROV-1 it was 13 µM (inactive); in the experiment with DU-145, 81.3 µM (inactive); with HT-29, 64.1 µM (inactive); with COLO 205, > 100 µM (inactive); with OVCAR-3 it was 62.2 µM (inactive). Moreover, the GI50 with UACC-62 is 35.7 µM (inactive); with SK-MEL-2, > 100 µM (inactive); with Malme-3M it was > 100 µM (inactive); in the experiment with RXF 393 it was 56.4 µM (inactive); in the experiment with UO-31, 51.5 µM (inactive); with SF-268, 71 µM (inactive). In addition, the GI50 in the experiment on HCT-116 is 40.4 µM (inactive); with HOP-62, 86.3 µM (inactive); with OVCAR-5, > 100 µM (inactive); in the experiment with SR it was 27.8 µM (inactive); with TK-10, > 100 µM (inactive); in the experiment with MOLT-4 it was 32.8 µM (inactive). Further, in the experiment on NCI-H226, the GI50 is 71.6 µM (inactive).

Regarding `CN(C)c1ccc(/C=C2\C[C@H]3[C@@H]4CCc5cc(OCCN6CCCC6)ccc5[C@H]4CC[C@]3(C)C2=O)cc1`, the GI50 was 1.73 µM (inactive) with SK-MEL-5; 1.13 µM (inactive) in the experiment on IGROV-1; 1.89 µM (inactive) with DU-145; 0.288 µM (active) in the experiment on HT-29; 1.52 µM (inactive) in the experiment with COLO 205; 1.9 µM (inactive) with UACC-62. Also, the GI50 with SK-MEL-2 was 1.98 µM (inactive); with RXF 393 it was 1.57 µM (inactive); with UO-31, 1.54 µM (inactive); in the experiment with HCT-116 it was 1.21 µM (inactive); in the experiment on OVCAR-5 it was 2.03 µM (inactive); in the experiment with SR, 0.333 µM (active). Further, the GI50 in the experiment on SNB-75 is 1.71 µM (inactive); in the experiment on TK-10, 1.64 µM (inactive); with MOLT-4, 1.31 µM (inactive); in the experiment with NCI-H226, 1.82 µM (inactive).

Regarding `C/C(=N\Nc1nc2ccccc2o1)c1cccc[n+]1[O-]`, the GI50 in the experiment on SK-MEL-5 is 23.9 µM (inactive); with IGROV-1 it was 16.1 µM (inactive); in the experiment on DU-145, 27.8 µM (inactive); in the experiment on HT-29 it was 5.13 µM (inactive); in the experiment on COLO 205 it was 4.73 µM (inactive); with OVCAR-3, 2.69 µM (inactive). Moreover, the GI50 in the experiment with UACC-62 was 46.1 µM (inactive); in the experiment with SK-MEL-2, > 100 µM (inactive); in the experiment on Malme-3M it was 2.27 µM (inactive); in the experiment on RXF 393, 24.6 µM (inactive); in the experiment with UO-31, 4.45 µM (inactive); in the experiment on SF-268, 19.1 µM (inactive). Also, the GI50 in the experiment on HCT-116 was 4.84 µM (inactive); with HOP-62 it was 10.5 µM (inactive); in the experiment on OVCAR-5 it was 11.4 µM (inactive); in the experiment on SR it was 6.19 µM (inactive); in the experiment on TK-10 it was 3.52 µM (inactive); in the experiment with MOLT-4, 1.5 µM (inactive). In addition, in the experiment with NCI-H226, the GI50 is 45.7 µM (inactive).

Take `CC(C)C1CSC2N1C(=O)C2(OCc1ccccc1)C1CC1` (configuration not stated): the GI50 in the experiment on SK-MEL-5, in the experiment with IGROV-1, in the experiment on DU-145, in the experiment with HT-29, in the experiment with COLO 205 and in the experiment with OVCAR-3 was > 100 µM (inactive) each time. Further, the GI50 in the experiment on UACC-62, in the experiment with Malme-3M, in the experiment with RXF 393, with UO-31, in the experiment with SF-268 and in the experiment on HCT-116 was > 100 µM (inactive) in each case. In addition, the GI50 with HOP-62 is > 100 µM (inactive); with OVCAR-5, > 100 µM (inactive); in the experiment with SR it was > 100 µM (inactive); in the experiment with SNB-75 it was 97.7 µM (inactive); with TK-10 it was > 100 µM (inactive); in the experiment on MOLT-4, 97.1 µM (inactive). The GI50 in the experiment with NCI-H226 is > 100 µM (inactive).

For the compound `Cc1c2c(n(CCc3ccc(Cl)cc3)c1C)NC(c1ccccc1)C(C#N)S2(=O)=O` (configuration not stated), the GI50 is 3.95 µM (inactive) in the experiment on SK-MEL-5; 17.2 µM (inactive) with IGROV-1; > 60 µM (inactive) in the experiment on DU-145; 11.9 µM (inactive) in the experiment with HT-29; 8.36 µM (inactive) with COLO 205; > 91.2 µM (inactive) in the experiment with OVCAR-3. Besides, the GI50 with UACC-62 was 36.6 µM (inactive); with SK-MEL-2, 22.4 µM (inactive); with Malme-3M, 20.5 µM (inactive); in the experiment with UO-31 it was 13.9 µM (inactive); with SF-268, 40.2 µM (inactive); with HCT-116 it was 15.2 µM (inactive). For the same compound, the GI50 in the experiment on HOP-62 is > 79.4 µM (inactive); in the experiment with OVCAR-5, > 100 µM (inactive); in the experiment with SR, 3.22 µM (inactive); in the experiment on SNB-75 it was 44.7 µM (inactive); with TK-10, > 100 µM (inactive); in the experiment on MOLT-4, 3.24 µM (inactive). For the same compound, the GI50 with NCI-H226 was > 59.7 µM (inactive).

As to `COc1cccc(/N=C/c2cc3cc(Br)ccc3nc2Cl)c1`, the GI50 in the experiment with SK-MEL-5 was 36.1 µM (inactive); with IGROV-1, 12.6 µM (inactive); in the experiment on DU-145 it was 48.8 µM (inactive); with HT-29, 27 µM (inactive); in the experiment on COLO 205, > 50 µM (inactive); with OVCAR-3, 34.4 µM (inactive). The GI50 with SK-MEL-2 was 13.7 µM (inactive); in the experiment with Malme-3M, > 50 µM (inactive); with RXF 393 it was 13.7 µM (inactive); in the experiment on UO-31, 12.5 µM (inactive); in the experiment on SF-268, 20.1 µM (inactive); in the experiment with HCT-116, 11.2 µM (inactive). Besides, the GI50 in the experiment with HOP-62 is 41.4 µM (inactive); in the experiment with OVCAR-5, > 50 µM (inactive); in the experiment with SR, 1.85 µM (inactive); in the experiment with SNB-75 it was 17.1 µM (inactive); with MOLT-4, 7.05 µM (inactive); with NCI-H226, 5.58 µM (inactive).

As for `Cc1cc(N2CCCC2)c([N+](=O)[O-])cc1[N+](=O)[O-]`, the GI50 in the experiment with SK-MEL-5, in the experiment on IGROV-1, in the experiment with DU-145, with HT-29, in the experiment with COLO 205 and with OVCAR-3 was > 100 µM (inactive) throughout. The GI50 was > 100 µM (inactive) in the experiment with UACC-62; > 100 µM (inactive) in the experiment with SK-MEL-2; > 100 µM (inactive) in the experiment on Malme-3M; 80.9 µM (inactive) with RXF 393; > 100 µM (inactive) with UO-31; > 100 µM (inactive) in the experiment on SF-268. Besides, the GI50 in the experiment on HCT-116, in the experiment on SR, in the experiment with SNB-75, in the experiment on MOLT-4 and in the experiment with NCI-H226 was > 100 µM (inactive) in each case.

For `S=C1N(/N=C/c2c3ccccc3cc3ccccc23)C(=N\c2ccccc2)/C(=N/c2ccccc2)N1c1ccccc1`, the GI50 in the experiment with SK-MEL-5, with IGROV-1, in the experiment on DU-145, with HT-29, with COLO 205 and in the experiment on OVCAR-3 was > 100 µM (inactive) in each case. For the same compound, the GI50 in the experiment with UACC-62, in the experiment with SK-MEL-2, in the experiment on Malme-3M, with RXF 393, in the experiment with UO-31 and with SF-268 was > 100 µM (inactive) in each case. In addition, the GI50 with HCT-116, in the experiment on HOP-62, in the experiment on OVCAR-5, in the experiment with SR, in the experiment on TK-10 and in the experiment on MOLT-4 was > 100 µM (inactive) in each case. Moreover, in the experiment on NCI-H226, the GI50 is > 100 µM (inactive).

`O=C(O)c1cc(O)c2c(c1)C([C@@H]1c3cccc(O)c3C(=O)c3c(O)cc(C(=O)O)cc31)c1cccc(O)c1C2=O` (some centres not stated): the GI50 with SK-MEL-5 is 17.6 µM (inactive); in the experiment on IGROV-1, 22.9 µM (inactive); in the experiment on DU-145, > 100 µM (inactive); with HT-29, 96.2 µM (inactive); in the experiment on COLO 205 it was > 100 µM (inactive); in the experiment with OVCAR-3, 66.5 µM (inactive). Also, the GI50 in the experiment with UACC-62 is 31 µM (inactive); in the experiment on Malme-3M, 23.7 µM (inactive); in the experiment with RXF 393, 28.2 µM (inactive); in the experiment with UO-31 it was > 100 µM (inactive); in the experiment on SF-268, 31.4 µM (inactive); in the experiment on HCT-116, 20.4 µM (inactive). The GI50 in the experiment with HOP-62 was > 10 µM (inactive); in the experiment with OVCAR-5, > 100 µM (inactive); with SR, 39.3 µM (inactive); with SNB-75 it was 25.3 µM (inactive); in the experiment with TK-10 it was 99.1 µM (inactive); in the experiment on MOLT-4 it was 20.7 µM (inactive). Also, the GI50 in the experiment on NCI-H226 is 33.7 µM (inactive).

Turning to `Cc1nc2ccccc2c(=O)n1NC(=O)c1ccc(CS)cc1`, the GI50 is 3.92 µM (inactive) with SK-MEL-5; 8.59 µM (inactive) with IGROV-1; 28.1 µM (inactive) in the experiment on DU-145; 10.8 µM (inactive) in the experiment on HT-29; 15.2 µM (inactive) in the experiment with COLO 205; 11.8 µM (inactive) in the experiment with OVCAR-3. Further, the GI50 is 6.58 µM (inactive) in the experiment with UACC-62; 27.9 µM (inactive) in the experiment with Malme-3M; > 10 µM (inactive) in the experiment with RXF 393; 12.5 µM (inactive) in the experiment on UO-31; 4.06 µM (inactive) in the experiment with SF-268; 4.4 µM (inactive) in the experiment on HCT-116. Further, the GI50 with HOP-62 is 18.8 µM (inactive); in the experiment with OVCAR-5, 34.5 µM (inactive); in the experiment on SR it was 2.97 µM (inactive); in the experiment with SNB-75 it was 14.9 µM (inactive); in the experiment with TK-10 it was > 10 µM (inactive); with MOLT-4 it was 1.02 µM (active). In the experiment on NCI-H226, the GI50 is 2.84 µM (inactive).

As to `CC1(C)C/N=C/C(C)(OCc2ccccc2)C(=O)NC(C)(C)C/N=C/C(C)(OCc2ccccc2)C(=O)N1` (configuration not stated), the GI50 in the experiment on SK-MEL-5, in the experiment on IGROV-1, with DU-145, in the experiment with HT-29, with OVCAR-3 and in the experiment with UACC-62 was > 10 µM (inactive) throughout. For the same compound, the GI50 in the experiment with SK-MEL-2, with RXF 393, in the experiment on UO-31, with SF-268, in the experiment with HCT-116 and in the experiment on HOP-62 was > 10 µM (inactive) throughout. For the same compound, the GI50 is > 10 µM (inactive) with OVCAR-5; > 10 µM (inactive) with SR; 3.82 µM (inactive) in the experiment on SNB-75; > 10 µM (inactive) in the experiment on TK-10; > 10 µM (inactive) in the experiment with MOLT-4; > 10 µM (inactive) in the experiment with NCI-H226.

The record behind these values is ChEMBL document CHEMBL1201862, “PubChem BioAssay data set” (2004).
